We go through 3 compounds from patent publication US10925960B2, “Antigen delivery system” (SRI INTERNATIONAL, priority 2014, dated 2021).

The test system of this assay is LLC1 cells. As to the kind of experiment: Coculture of liposome-treated LLC1 cells with lymphocytes from H250-vaccinated C57BL/6 mice, IFNγ secretion. It is filed as cell-based, mouse. Particulars: LLC1 cells treated with H1299.3-targeted liposomes containing H250 in presence of inhibitor, fixed, cocultured with lymphocytes. As to the method:
We then generated murine CD8+ cells with TCR that recognizes MHC class I loaded H250 (1) by vaccinating C57BL/6 mice with an extended version of H250 and subsequently harvesting lymphocytes as a source of CD8+ T cells. LLC1 cells were treated with control or H1299.3-targeted liposomes containing H250, washed, and then incubated.
After allowing trafficking of the peptides to occur, the LLC1 cells were fixed and cocultured with lymphocytes as previously described.

As for `C[C@@H]1[C@H](O)[C@@H](C)/C=C/C=C/CC/C=C/C=C/C=C/C=C/C(O[C@H]2O[C@H](C)[C@@H](O)[C@H](N)[C@@H]2O)CC2O[C@](O)(CC(O)C(O)CCC(O)CC(O)CC(O)CC(=O)O[C@H]1C)CC(O)C2C(=O)O` (stereo partly drawn) [Nystatin], the “Effect of inhibitor on IFNγ secretion / H250 presentation” value is given as “no effect”.
Next, `CN(C)CCCN1c2ccccc2Sc2ccc(Cl)cc21` [Chlorpromazine]: “reduced presentation”; `CCN(CC)CCCC(C)Nc1ccnc2cc(Cl)ccc12` (stereo not drawn) [chloroquine]: “significant reduction in IFNγ secretion”.
